The source of these data is paper PMC9207812 (ACS chemical biology, 2022).

No end group written: not given here.

Format in all cases: binding
The target in test [1] is T1, WDR5 F133L (Homo sapiens, UniProt P61964, F133L). Description: Biolayer interferometry (BLI), F133L. To be noted: for increase in KD-BLI: F133L versus native WDR5; for koff: pH 7.5, read-out: koff (dissociation rate constant); for kon: pH 7.5, read-out: kon (association rate constant). For orientation: Biolayer interferometry detects binding as a change in optical thickness at a sensor tip.

Test [2] concerns the target T1, WDR5 F133L. Description: Steady-state fluorescence polarization (FP), F133L. (In general: Fluorescence polarisation rises when a labelled molecule tumbles more slowly, as on binding a larger partner.)
Test [3] has as its target T2, WDR5 Y260H (Homo sapiens, UniProt P61964, Y260H). Description: Steady-state fluorescence polarization (FP), Y260H.
Test [4] addresses T3, WDR5 S218F (Homo sapiens, UniProt P61964, S218F). Nature of the test: Biolayer interferometry (BLI), S218F. Particulars: for koff: pH 7.5, read-out: koff (dissociation rate constant); for kon: pH 7.5, read-out: kon (association rate constant).
In test [5] the target is T4, WDR5 D172A (Homo sapiens, UniProt P61964, D172A). Description: Steady-state fluorescence polarization (FP), D172A.
Test [6] concerns the target T5, WDR5 S175L (Homo sapiens, UniProt P61964, S175L). Nature of the test: Biolayer interferometry (BLI), S175L. Particulars: for koff: pH 7.5, read-out: koff (dissociation rate constant); for kon: pH 7.5, read-out: kon (association rate constant).
In test [7] the target is T2, WDR5 Y260H. Nature of the test: Biolayer interferometry (BLI), Y260H. Particulars: for koff: pH 7.5, read-out: koff (dissociation rate constant); for kon: pH 7.5, read-out: kon (association rate constant).
Test [8] addresses T6, WDR5 P216L (Homo sapiens, UniProt P61964, P216L). Nature of the test: Biolayer interferometry (BLI), P216L. Particulars: for koff: pH 7.5, read-out: koff (dissociation rate constant); for kon: pH 7.5, read-out: kon (association rate constant).
In test [9] the target is T5, WDR5 S175L. Nature of the test: Steady-state fluorescence polarization (FP), S175L.
Test [10] deals with T3, WDR5 S218F. Nature of the test: Steady-state fluorescence polarization (FP), S218F.
Test [11] addresses T6, WDR5 P216L. Nature of the test: Steady-state fluorescence polarization (FP), P216L.
The target of test [12] is T4, WDR5 D172A. Description: Biolayer interferometry (BLI), D172A. To be noted: for koff: pH 7.5, read-out: koff (dissociation rate constant); for kon: pH 7.5, read-out: kon (association rate constant).

In the case of `CC(C)[C@H](NC(=O)[C@H](Cc1c[nH]cn1)NC(=O)[C@@H](N)CCC(=O)O)C(=O)N[C@H](C(=O)NCC(=O)N[C@@H](CS)C(=O)N[C@@H](C)C(=O)N[C@@H](CCCNC(=N)N)C(=O)N[C@@H](CO)C(=O)N[C@@H](CCC(=O)O)C(=O)NCC(=O)N[C@@H](Cc1ccccc1)C(=O)N[C@@H](Cc1ccc(O)cc1)C(=O)N[C@H](C(N)=O)[C@@H](C)O)[C@@H](C)O` [SETd1BWin], the Kd – broadly, the constant that tells how readily two partners part at equilibrium – in test [1] is 6000 nM; in [2], 820 ± 30 nM; in test [3] it was 23 ± 2 nM; in test [4] it was 360 ± 20 nM; in test [5], 18 ± 1 nM; in test [6], 56 ± 3 nM. Moreover, the Kd in [7] was found to be 230 ± 10 nM; in test [8], 370 ± 40 nM; in test [9], 11 ± 1 nM; in test [10], 37 ± 1 nM; in [11] it was 28 ± 2 nM; in test [12], 260 ± 10 nM. Also, the “increase in KD-BLI” value in [1] is “between one and two orders of magnitude”. Besides, the koff (as a rule, the rate constant with which the complex falls apart) stood at 0.24 ± 0.02 s⁻¹ in test [1]; 0.023 ± 0.002 s⁻¹ in [4]; 0.0049 ± 0.0003 s⁻¹ in test [6]; 0.023 ± 0.003 s⁻¹ in test [7]; 0.03 ± 0.005 s⁻¹ in test [8]; 0.023 ± 0.003 s⁻¹ in [12]. Besides, the kon (as a rule, the second-order rate constant of association) in [1] was 43000 ± 12000 M⁻¹ s⁻¹; in [4], 63000 ± 6000 M⁻¹ s⁻¹; in test [6], 84000 ± 6000 M⁻¹ s⁻¹; in test [7], 100000 ± 10000 M⁻¹ s⁻¹; in [8] it was 80000 ± 8000 M⁻¹ s⁻¹; in test [12], 89000 ± 14000 M⁻¹ s⁻¹.
Consider EHQTGSARSEGYYP-NH2 [SETd1AWin], for which the Kd in test [1] came out at 30000 nM; in test [2], 5700 nM; in test [3], 140 ± 20 nM; in [4], 830 ± 110 nM; in [5], 61 ± 2 nM; in [6] it was 1400 nM. Also, the Kd in test [7] is 1100 nM; in [8] it was 380 ± 20 nM; in [9] it was 92 ± 7 nM; in test [10], 100 ± 10 nM; in [11], 39 ± 2 nM; in [12], 900 ± 240 nM. Further, in test [1], the “increase in KD-BLI” value was “between one and two orders of magnitude”. The koff in test [1] amounted to 0.69 ± 0.04 s⁻¹; in test [4] it was 0.046 ± 0.007 s⁻¹; in test [6], 0.089 ± 0.03 s⁻¹; in [7], 0.098 ± 0.029 s⁻¹; in test [8] it was 0.033 ± 0.004 s⁻¹; in test [12], 0.11 ± 0.03 s⁻¹. Also, the kon in test [1] was 26000 ± 3000 M⁻¹ s⁻¹; in test [4], 56000 ± 4000 M⁻¹ s⁻¹; in [6], 61000 ± 7000 M⁻¹ s⁻¹; in test [7], 88000 ± 13000 M⁻¹ s⁻¹; in [8], 86000 ± 8000 M⁻¹ s⁻¹; in test [12] it was 130000 ± 10000 M⁻¹ s⁻¹.
For INPTGCARSEPKIL-NH2 [MLL2Win], the Kd came to 8300 nM in test [1]; 2100 nM in [2]; 34 ± 4 nM in test [3]; 640 ± 20 nM in test [4]; 25 ± 4 nM in test [5]; 130 ± 10 nM in test [6]. Further, the Kd in [7] came out at 200 ± 20 nM; in [8] it was 200 ± 50 nM; in [9], 11 ± 1 nM; in [10] it was 94 ± 7 nM; in test [11], 18 ± 3 nM; in test [12] it was 240 ± 10 nM. In test [1], the “increase in KD-BLI” value was “between one and two orders of magnitude”. Also, the koff came to 0.14 ± 0.02 s⁻¹ in [1]; 0.025 ± 0.002 s⁻¹ in test [4]; 0.0063 ± 0.0001 s⁻¹ in test [6]; 0.013 ± 0.001 s⁻¹ in test [7]; 0.011 ± 0.002 s⁻¹ in [8]; 0.014 ± 0.001 s⁻¹ in test [12]. Besides, the kon in test [1] worked out at 16000 ± 1000 M⁻¹ s⁻¹; in test [4], 40000 ± 2000 M⁻¹ s⁻¹; in test [6], 49000 ± 4000 M⁻¹ s⁻¹; in [7], 66000 ± 9000 M⁻¹ s⁻¹; in test [8], 56000 ± 8000 M⁻¹ s⁻¹; in test [12] it was 57000 ± 6000 M⁻¹ s⁻¹.
For the molecule LNPHGAARAEVYLS-NH2 [MLL4Win], the Kd is at least 100000 nM in test [1]; 8800 nM in test [2]; 130 ± 10 nM in [3]; 3400 nM in [4]; 78 ± 3 nM in [5]; 4200 nM in test [6]. Further, the Kd in [8] was 9900 nM; in test [9] it was 280 ± 30 nM; in test [10], 420 ± 40 nM; in [11], 690 ± 60 nM; in test [12], 1400 nM. Besides, the koff is over 1 s⁻¹ in test [1]; 0.071 ± 0.001 s⁻¹ in [4]; 0.13 ± 0.004 s⁻¹ in test [6]; 0.047 ± 0.028 s⁻¹ in test [7]; 0.22 ± 0.05 s⁻¹ in [8]; 0.051 ± 0.01 s⁻¹ in [12]. Besides, the on-rate constant (kon) in [4] was 20000 ± 2000 M⁻¹ s⁻¹; in test [6] it was 30000 ± 1000 M⁻¹ s⁻¹; in test [7] it was 24000 ± 3000 M⁻¹ s⁻¹; in test [8], 19000 ± 3000 M⁻¹ s⁻¹; in test [12], 37000 ± 4000 M⁻¹ s⁻¹.
In the case of LNPHGSARAEVHLS-NH2 [MLL1Win], the Kd is over 53000 nM in test [2]; 9700 nM in test [3]; at least 100000 nM in test [4]; 5600 nM in test [5]; at least 100000 nM in test [6]; at least 100000 nM in test [7]. The Kd in test [8] was at least 100000 nM; in test [9], 4800 nM; in test [10], 8100 nM; in [11], over 14600 nM; in test [12], at least 100000 nM. Besides, the koff in test [4], in test [6], in [7], in [8] and in test [12] was over 1 s⁻¹ throughout.
As to VNPTGCARSEPKMS-NH2 [MLL3Win], the Kd in test [1] was 3700 nM; in test [2], 1000 nM; in [3], 22 ± 2 nM; in test [4] it was 530 ± 20 nM; in test [5], 12 ± 1 nM; in [6] it was 330 ± 20 nM. Moreover, the Kd in [7] is 110 ± 20 nM; in [8] it was 200 ± 30 nM; in test [9], 23 ± 1 nM; in test [10], 80 ± 7 nM; in test [11] it was 19 ± 1 nM; in [12], 140 ± 10 nM. Further, in [1], the “increase in KD-BLI” value was “between one and two orders of magnitude”. The koff is 0.1 ± 0.01 s⁻¹ in [1]; 0.021 ± 0.003 s⁻¹ in test [4]; 0.016 ± 0.002 s⁻¹ in [6]; 0.0077 ± 0.0006 s⁻¹ in [7]; 0.011 ± 0.003 s⁻¹ in test [8]; 0.0093 ± 0.0019 s⁻¹ in [12]. Besides, the kon in test [1] worked out at 36000 ± 21000 M⁻¹ s⁻¹; in test [4] it was 39000 ± 5000 M⁻¹ s⁻¹; in [6], 49000 ± 3000 M⁻¹ s⁻¹; in test [7], 64000 ± 2000 M⁻¹ s⁻¹; in [8], 53000 ± 7000 M⁻¹ s⁻¹; in test [12], 65000 ± 13000 M⁻¹ s⁻¹.
